Results reported in US9505773B2 (Isomerase Therapeutics Limited, priority 2013, dated 2016).

Experiments:
FKBP12 = FKBP12 (Homo sapiens (Human), UniProt P62942); test: FKBP12 PPlase assay; assay type: biochemical; settings: for Ki: FKBP12 PPlase assay, 6 concentrations in duplicate, data fitted to a Ki curve; for inhibition at 1 µM: read-out: inhibition of FKBP12 at 1 uM
Method: The first order rate equation was fitted to the absorbance data to obtain a rate constant. A catalytic rate (Kenz) was calculated from the enzymatic rate minus the background rate. Kenz v inhibitor concentration was plotted to obtain the Ki value. […] All compounds were assayed at 6 concentrations in duplicate and the data fitted to a Ki curve to afford a Ki value with standard error (SE).

[1] = system: murine T cell proliferation (PLP peptide-stimulated lymph node cells; mTOR-driven); test: Murine PLP T cell proliferation assay (PLP assay); assay type: cell-based; settings: for IC50: Mus musculus, PLP T-cell proliferation assay; for Ratio (PLP/FKBP*): PLP IC50 / FKBP12 Ki (Ki values from Example 19)
Method: Murine PLP T Cell Proliferation Assay
Activity of mTOR inhibitors was measured in two different antigen-specific murine T cell proliferation assays (as described in Young et al., 2000). […] In a second type of assay, lymph nodes obtained from PLP TCR transgenic mice are simulated with PLP peptide in culture in a primary stimulation assay.

Chain of FKBP12 (P62942 whole entry, species assumed): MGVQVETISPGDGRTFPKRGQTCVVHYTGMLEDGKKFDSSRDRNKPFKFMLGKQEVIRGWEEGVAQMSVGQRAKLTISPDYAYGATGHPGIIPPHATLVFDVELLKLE

Compound	Ki (FKBP12) [nM]	IC50 [1] [nM]	Ratio (PLP/FKBP*) [1]	inhibition at 1 µM (FKBP12) [%]
CO[C@H]1C[C@@H]2CC[C@@H](C)[C@@](O)(O2)C(=O)C(=O)N2CCCC[C@H]2C(=O)OC([C@H](C)C[C@@H]2CC[C@@H](O)[C@H](O)C2)C/C=C(\C)[C@@H](O)CC(=O)[C@H](C)C[C@H](C)/C=C/C=C/C=C/1C (some centres unmarked) [Compound 10]	4.2	14000	3338.333	–
CO[C@H]1C[C@@H]2CC[C@@H](C)[C@](O)(CC(=O)N3CCCC[C@H]3C(=O)OC([C@H](C)C[C@H]3CC[C@H](O)CC3)CC(=O)[C@H](C)C[C@H](C)/C=C/C=C/C=C/1C)O2 (some centres unmarked) [Compound 6]	370	2620	7.095	–
CO[C@H]1C[C@@H]2CC[C@@H](C)[C@@](O)(O2)C(=O)C(=O)N2CCCC[C@H]2C(=O)O[C@H]([C@H](C)C[C@H]2CC[C@H](O)CC2)C/C=C(\C)[C@@H](O)[C@@H](O)C(=O)[C@H](C)C[C@H](C)/C=C/C=C/C=C/1C [Compound 20]	18	–	–	–
CO[C@@H](C[C@@H]1CC[C@@H](C)[C@](O)(C(=O)C(=O)N2CCCC[C@H]2C(=O)O[C@@H](C/C=C(\C)C=O)[C@H](C)C[C@H]2CC[C@H](O)CC2)O1)/C(C)=C/C=C/C=C/[C@@H](C)C[C@@H](C)C(=O)CO [Compound 22]	12	–	–	–
CO[C@H]1C[C@@H]2CC[C@@H](C)[C@@](O)(O2)C(=O)C(=O)N2CCCC[C@H]2C(=O)OC([C@H](C)C[C@H]2CC[C@H](O)CC2)C/C=C(\C)[C@@H](O)CC(=O)[C@H](C)C[C@H](C)/C=C/C=C/C=C/1C (some centres unmarked) [Compound 5]	7.9	–	–	–
CO[C@H]1C[C@@H]2CC[C@@H](C)[C@@](O)(O2)C(=O)C(=O)N2CCCC[C@H]2C(=O)O[C@H]([C@H](C)C[C@H]2CC[C@H](O)CC2)CC(O)CC(=O)[C@H](C)/C=C(\C)[C@@H](O)CC(=O)[C@@H](C)C[C@H](C)/C=C/C=C/C=C/1C (some centres unmarked) [Compound 14]	6.5	–	–	–
CO[C@H]1C[C@@H]2CC[C@@H](C)[C@@](O)(O2)C(=O)C(=O)N2CCCC[C@H]2C(=O)O[C@H]([C@H](C)C[C@@H]2CC[C@@H](O)[C@H](OC)C2)CC(=O)[C@H](C)/C=C(\C)[C@@H](O)[C@@H](OC)C(=O)[C@H](C)C[C@H](C)/C=C/C=C/C=C/1C [Rapamycin, rapamycin, reference compound]	–	0.024	–	–
CO[C@H]1C[C@@H]2CC[C@@H](C)[C@](O)(CC(=O)N3CCCC[C@H]3C(=O)OC([C@H](C)C[C@@H]3CC[C@@H](O)[C@H](O)C3)C/C=C(\C)[C@@H](O)CC(=O)[C@H](C)C[C@H](C)/C=C/C=C/C=C/1C)O2 (some centres unmarked) [Compound 9]	180	–	–	–
CO[C@H]1C[C@@H]2CC[C@@H](C)[C@@](O)(O2)C(=O)C(=O)N2CCCC[C@H]2C(=O)OC2CCC(CC2)C(=O)[C@H](C)C[C@H](C)/C=C/C=C/C=C/1C [Compound 15]	–	–	–	31
CO[C@@H](C[C@@H]1CC[C@@H](C)[C@](O)(CC(=O)N2CCCC[C@H]2C(=O)O)O1)/C(C)=C/C=C/C=C/[C@@H](C)C[C@H]1CC[C@H](O)CC1 [Compound 3]	–	1450	–	25
CO[C@H]1C[C@@H]2CC[C@@H](C)[C@@](O)(O2)C(=O)C(=O)N2CCCC[C@H]2C(=O)OC([C@H](C)C[C@@H]2CC[C@@H](O)[C@H](OC)C2)C/C=C(\C)[C@@H](O)CC(=O)[C@H](C)C[C@H](C)/C=C/C=C/C=C/1C (some centres unmarked) [Compound 8]	5.9	490	83.05	–
CO[C@H]1C[C@@H]2CC[C@@H](C)[C@](O)(CC(=O)N3CCCC[C@H]3C(=O)O[C@H]([C@H](C)C[C@H]3CC[C@H](O)CC3)C/C=C(\C)[C@@H](O)CC(=O)[C@H](C)C[C@H](C)/C=C/C=C/C=C/1C)O2 [Compound 18]	45	–	–	–
C\C1=C/C=C/C=C/[C@@H](C)C[C@@H](C)C(=O)C2CCC(CC2)OC(=O)[C@@H]2CCCCN2C(=O)C(=O)[C@]2(O)O[C@@H](CC[C@H]2C)C[C@@H]1O [Compound 16]	460	–	–	–
CO[C@H]1C[C@@H]2CC[C@@H](C)[C@@](O)(O2)C(=O)C(=O)N2CCCC[C@H]2C(=O)OC([C@H](C)Cc2ccncc2)C/C=C(\C)[C@@H](O)CC(=O)[C@H](C)C[C@H](C)/C=C/C=C/C=C/1C (some centres unmarked) [Compound 13]	13	6590	506.6154	–
C/C1=C\C[C@@H]([C@H](C)C[C@H]2CC[C@H](O)CC2)OC(=O)[C@@H]2CCCCN2C(=O)C(=O)[C@]2(O)O[C@@H](CC[C@H]2C)C[C@H](O)/C(C)=C/C=C/C=C/[C@@H](C)C[C@@H](C)C(=O)C[C@@H]1O [Compound 19]	7.7	–	–	–
CC/C1=C\CC(/C(C)=C/C(C)C(C)O)OC(=O)C2CCCCN2C(=O)C(=O)C2(O)OC(CCC2C)CC(O)C(C)C(O)CC(O)CC(O)/C(C)=C/C(C)CC(C)C1O (centres unmarked) [Meridamycin]	10	–	–	–
CO[C@H]1C[C@@H]2CC[C@@H](C)[C@@](O)(O2)C(=O)C(=O)N2CCCC[C@H]2C(=O)OC([C@H](C)Cc2ccc(CO)s2)C/C=C(\C)[C@@H](O)CC(=O)[C@H](C)C[C@H](C)/C=C/C=C/C=C/1C (some centres unmarked) [Compound 12]	9.5	2860	301.5789	–
CO[C@H]1C[C@@H]2CC[C@@H](C)[C@](O)(CC(=O)N3CCCC[C@H]3C(=O)O[C@H](/C(C)=C/CC(O)[C@H](C)C[C@@H]3CC[C@@H](O)[C@H](O)C3)CC(=O)[C@H](C)C[C@H](C)/C=C/C=C/C=C/1C)O2 (some centres unmarked) [Compound 11]	430	4180	9.721	–
CO[C@H]1C[C@@H]2CC[C@@H](C)[C@@](O)(O2)C(=O)C(=O)N2CCCC[C@H]2C(=O)OC([C@H](C)C[C@H]2CC[C@H](O)CC2)C[C@@H](O)CC(=O)[C@H](C)C[C@H](C)/C=C/C=C/C=C/1C (some centres unmarked) [Compound 4]	–	4460	–	–
